Experimental data taken from publication PMC9718554, “Discovery of a fragment hit compound targeting D-Ala:D-Ala ligase of bacterial peptidoglycan biosynthesis” (Journal of Enzyme Inhibition and Medicinal Chemistry, 2022).
Where two headings read alike, the source gives them in different places.

Target: T1, E. coli DdlB enzyme (D-alanine:D-alanine ligase) (Escherichia coli, UniProt P07862)
T1 construct: made in house; host or cells: E. coli
Experiment: biochemical
Settings: for remaining activity at 2300 µM: tested concentration 2.3 mM; for remaining activity at 2100 µM: tested concentration 2.1 mM; for remaining activity at 3200 µM: tested concentration 3.2 mM; for remaining activity at 1900 µM: tested concentration 1.9 mM; for remaining activity at 2600 µM: tested concentration 2.6 mM; for remaining activity at 2400 µM: tested concentration 2.4 mM; for remaining activity at 2000 µM: tested concentration 2.0 mM; for remaining activity at 1700 µM: tested concentration 1.7 mM; for remaining activity at 1800 µM: tested concentration 1.8 mM; for remaining activity at 2200 µM: tested concentration 2.2 mM
Method: The fragment library was assayed in a DdlB inhibition assay, where fragments were tested for their ability to inhibit the D-Ala-adding activity of DdlB ligase. The orthophosphate formed during the enzymatic reaction was measured spectrophotometrically using malachite green reagent.
A recombinant E. coli DdlB enzyme (D-alanine:D-alanine ligase) was expressed in E. coli[11]. […] The final DMSO concentration was 5%. […] All experiments were performed in duplicates. […] IC50 values were determined by measuring the residual activities in quadruplicate at seven different compound concentrations and calculated using in GraphPad Prism (GraphPad Software, San Diego, CA, USA).

[1] = residual activity of DdlB, fragment library screening, tested concentration 2.5 mM, read-out: DdlB RA
[2] = residual activity, read-out: DdlB RA
[3] = fragment library screening, read-out: DdlB RA

Cc1ccc(C(C)C)cc1S(=O)(=O)O [Compound 8020-8310]
remaining activity at 2300 µM (read-out: DdlB RA): 91%

O=C(O)Cn1nnc(-c2ccccc2Cl)n1 [Compound 8007-4998]
remaining activity at 2100 µM (read-out: DdlB RA): 93%

Nc1cccc([N+](=O)[O-])c1 [FLD061]
remaining activity at 2500 µM [1]: 98%

O=c1[nH][nH]c2ccccc12 [FLD002]
remaining activity at 2500 µM [1]: 89%

NC(=O)c1cnccn1 [FLD007]
remaining activity at 2500 µM [1]: 100%

NCCNC(=O)c1nonc1N [Compound 8006-0101]
remaining activity at 3200 µM (residual activity of DdlB, fragment library screening, read-out: DdlB RA): 93%

O=C(O)c1ccccc1NCc1ccccc1Cl [Compound K783-0963]
remaining activity at 1900 µM [2]: 95%

NC(=O)c1cccnc1 [FLD031]
remaining activity at 2500 µM [1]: 100%

CN1CCN(C)C1c1ccccc1O [FF01-2467]
remaining activity at 3100 µM (tested concentration 3.1 mM, read-out: DdlB RA): 93%

Nc1cccc(CC(=O)O)c1 [FLD131]
remaining activity at 2500 µM [1]: 97%

Cc1cnc(C)n1CCNC(=O)C1CC=CC1 [Compound S751-1890]
remaining activity at 2600 µM (read-out: DdlB RA): 98%

O=C(O)c1ccccc1NC(=O)C(F)(F)F [Compound 0931-0537]
remaining activity at 2100 µM [2]: 104%

CCC(=O)Nc1ccc2[nH]c(=O)oc2c1 [Compound G434-0836]
remaining activity at 2400 µM (read-out: DdlB RA): 85%

O=C(Nc1cccnc1)[C@H]1CCCC[C@H]1C(=O)O [Compound Y203-7528]
remaining activity at 2000 µM [3]: 91%

CNCCN1C(=O)C(C)SC1c1ccccc1C (stereo not drawn) [Compound V007-8918]
remaining activity at 1900 µM (read-out: DdlB RA): 72%

Oc1nonc1N1CCCC1 [Compound 8018-8553]
remaining activity at 3200 µM (read-out: DdlB RA): 116%

O=C(NCc1ccncc1)[C@H]1CC=CC[C@H]1C(=O)O [Compound Y204-2545]
remaining activity at 1900 µM [3]: 75%

Cc1nnc(C2CCCCN2C(=O)NC2CCCCC2)[nH]1 (stereo not drawn) [Compound M754-0764]
remaining activity at 1700 µM [2]: 77%

Clc1nccs1 [FLD184]
remaining activity at 2500 µM [1]: 98%

Cc1ccn(C(C)C(=O)O)n1 (stereo not drawn) [Compound Y503-2318]
remaining activity at 3200 µM (read-out: DdlB RA): 95%

O=C(O)Cc1nc(-c2cncc(Br)c2)n[nH]1 [Compound 8020-5455]
remaining activity at 1800 µM [2]: 94%

COC(=O)c1ccccc1C(=O)O [FLD006]
remaining activity at 2500 µM [1]: 89%

O=C(O)c1cc(O)ccc1Cl [FLD097]
remaining activity at 2500 µM [1]: 94%

Cc1cccc(C(=O)O)c1NC(=O)c1ccc(F)cc1 [Compound 8009-0898]
remaining activity at 1800 µM [2]: 99%

Cc1c(N)c(=O)n(-c2ccccc2)n1C [Compound 1254-0226]
remaining activity at 2500 µM (tested concentration 2.5 mM, read-out: DdlB RA): 95%

Oc1c(F)c(F)c(F)c(F)c1F [FLD172]
remaining activity at 2500 µM [1]: 92%

CC(C)C(=O)N1CCC2(CCNC(=O)CC2)CC1 [Compound S509-1270]
remaining activity at 2000 µM (read-out: DdlB RA): 93%

Cc1ccccc1CS(=O)(=O)N1CCCC(C)C1 (stereo not drawn) [Compound Y300-2308]
remaining activity at 2200 µM [2]: 95%

Cc1noc(C)c1C(=O)NCC1Cn2cccc2CN1C (stereo not drawn) [Compound S590-0019]
remaining activity at 2100 µM [2]: 45%

CCN(Cc1ccccc1)S(=O)(=O)c1ncn[nH]1 [Compound 8013-0404]
remaining activity at 1900 µM [2]: 89%

COc1ccc2[nH]c(S(=O)(=O)O)nc2c1 [Compound 3260-0314]
remaining activity at 2200 µM (read-out: DdlB RA): 91%

Oc1cccc(-c2ccccc2)c1 [FLD076]
remaining activity at 2500 µM [1]: 98%

CC1(C)Cc2nc(N)c(C(=O)O)cc2CO1 [Compound 5545-0125]
remaining activity at 2300 µM [2]: 95%

Cc1nc2nc(S(N)(=O)=O)nn2c(C)c1C [Compound 8009-4322]
remaining activity at 2100 µM (read-out: DdlB RA): 97%

Nc1ccc2ccccc2c1 [FLD074]
remaining activity at 2500 µM [1]: 89%

Clc1ncnc2[nH]ccc12 [FLD154]
remaining activity at 2500 µM [1]: 95%

O=C(O)c1cc(-c2ccccc2Cl)on1 [Compound D717-0173]
remaining activity at 2200 µM [2]: 107%

CC(C)n1ncc(C(N)=O)c1N [Compound 8014-2120]
remaining activity at 3000 µM (residual activity of DdlB, fragment library screening, tested concentration 3.0 mM, read-out: DdlB RA): 92%

CCN(CC)S(=O)(=O)c1ncn[nH]1 [Compound 8008-1932]
remaining activity at 2400 µM (read-out: DdlB RA): 93%

CC(=O)Nc1cc(-n2cnnc2)ccc1C(=O)O [Compound 8020-0076]
remaining activity at 2000 µM [2]: 97%

C#Cc1cccc(OC)c1 [FLD182]
remaining activity at 2500 µM [1]: 91%

COc1ccc(CNc2ccccc2C(=O)O)cc1 [Compound K783-0843]
remaining activity at 1900 µM [2]: 101%

OCc1noc(C2CC2)n1 [Compound 8020-1925]
remaining activity at 3900 µM (residual activity of DdlB, fragment library screening, tested concentration 3.9 mM, read-out: DdlB RA): 98%

Cc1ccccc1NS(=O)(=O)c1c[nH]c2ncccc12 [Compound P633-0038]
remaining activity at 1700 µM [2]: 89%

CC(=O)N1CCC2(CCc3ccc(O)cc3O2)CC1 [Compound Y041-9811]
remaining activity at 2100 µM (read-out: DdlB RA): 94%

O=c1[nH]c2ccc(O)cc2o1 [Compound 8020-7157]
remaining activity at 3300 µM (tested concentration 3.3 mM, read-out: DdlB RA): 96%

CC(O)c1ccccc1 (stereo not drawn) [FLD168]
remaining activity at 2500 µM [1]: 98%

CCCOc1ccc(C(=O)NCC(=O)O)cc1 [Compound 8007-0359]
remaining activity at 2100 µM (read-out: DdlB RA): 86%

N#CCc1nnc(-c2cccc(Cl)c2)[nH]1 [Compound 8018-3009]
remaining activity at 2300 µM [2]: 93%

Cc1cccc(C2SC(C)C(=O)N2CC(=O)N(C)C)c1 (stereo not drawn) [Compound V017-7801]
remaining activity at 1700 µM (read-out: DdlB RA): 98%

Cn1ncc(N2CCC[C@@H](C(=O)O)C2)cc1=O [Compound P207-8929]
remaining activity at 2100 µM (read-out: DdlB RA): 92%

CC1CN(C)C(C)CC1n1nc(O)cc1N (stereo not drawn) [Compound D068-0221]
remaining activity at 2200 µM (read-out: DdlB RA): 101%

Cc1ccc(N)c(O)c1 [FLD023]
remaining activity at 2500 µM (read-out: DdlB RA): 100%

Cc1ccc([C@@H](CC(=O)O)c2ccco2)cc1 [Compound 5664-0388]
remaining activity at 2200 µM (read-out: DdlB RA): 100%

CCn1cc(C(=O)Nc2ccccc2C(=O)O)cn1 [Compound Y501-0105]
remaining activity at 1900 µM [2]: 88%

O=S(=O)(c1cccnc1)N1CCC2(CCC2O)CC1 (stereo not drawn) [Compound S971-1046]
remaining activity at 1800 µM [2]: 89%

CC(C)CNC(=O)Cc1c[nH]c2ncccc12 [Compound M508-0619]
remaining activity at 2200 µM [2]: 94%

O=C(O)CCc1cn2cccnc2n1 [Compound 8020-2316]
remaining activity at 2600 µM (read-out: DdlB RA): 94%

Cc1cccc(-c2ccnc3c(C#N)cnn23)c1 [Compound 22, 7-(m-Tolyl)pyrazolo[1,5-a]pyrimidine-3-carbonitrile]
remaining activity at 500 µM (at 0.5 mM, read-out: DdlB inhibition, RA (Residual Activity)): 100%

Cc1cc(C)nc(C)c1 [FLD167]
remaining activity at 2500 µM [1]: 95%

Cc1ccc(Cl)cc1S(=O)(=O)N1CCOCC1 [Compound 8010-0539]
remaining activity at 2000 µM [2]: 98%

Cc1cccc(OCC(=O)NC(C)C(=O)O)c1 (stereo not drawn) [Compound 1683-0903]
remaining activity at 2100 µM (read-out: DdlB RA): 98%

Cc1nc(C(=O)O)c(C)n1C1CCN(C)CC1 [FF20-0714]
remaining activity at 2100 µM [2]: 100%

O=C1COc2cc(O)ccc21 [FLD029]
remaining activity at 2500 µM [1]: 100%

CNC(=O)NCCc1c[nH]c2ncccc12 [Compound M509-0295]
remaining activity at 2300 µM [2]: 80%

O=C(O)c1ccc[nH]1 [FLD034]
remaining activity at 2500 µM [1]: 100%

c1ccc2c(c1)N(CN1CCCC1)CC21OCCO1 [Compound 5482-0050]
remaining activity at 2300 µM (read-out: DdlB RA): 94%

Cc1onc(-c2ccccc2Cl)c1C(=O)NCC#N [Compound Y030-1543]
remaining activity at 2200 µM [2]: 98%

CCOc1c(Nc2ccc(F)cc2)c(=O)c1=O [Compound G317-0061]
remaining activity at 2100 µM (read-out: DdlB RA): 96%

CC1CN(c2ccccc2)NC1=O (stereo not drawn) [Compound 8009-3796]
remaining activity at 3400 µM (residual activity of DdlB, fragment library screening, tested concentration 3.4 mM, read-out: DdlB RA): 97%

Nc1cc(=O)[nH]o1 [Compound 8020-8247]
remaining activity at 5000 µM (tested concentration 5.0 mM, read-out: DdlB RA): 97%

NC(=O)CN1C(=O)C2(CCCCC2)C1c1ccccc1 (stereo not drawn) [Compound S642-0104]
remaining activity at 2200 µM [2]: 96%

Cc1nn(C)cc1-c1cc(C(=O)O)n[nH]1 [Compound Y503-2347]
remaining activity at 2400 µM (read-out: DdlB RA): 95%

Cc1ccc2ccc(S(=O)(=O)O)cc2c1 [Compound 1326-0466]
remaining activity at 2200 µM (read-out: DdlB RA): 101%

O=C1CC(C(=O)O)c2ccccc2N1 (stereo not drawn) [Compound K784-1648]
remaining activity at 2600 µM (read-out: DdlB RA): 87%

O=C(O)c1cnn2c(-c3ccc(Cl)cc3)ccnc12 [Compound 12, 7–(4-Chlorophenyl)pyrazolo[1,5-a]pyrimidine-3-carboxylic acid]
remaining activity at 1000 µM (at 1 mM, read-out: DdlB inhibition, RA (Residual Activity)): 90% | remaining activity at 5000 µM (at 5 mM, read-out: DdlB inhibition, RA (Residual Activity)): 0%

O=c1c(O)c(N2CCc3ccccc3C2)c1=O [Compound G317-0491]
remaining activity at 2200 µM (read-out: DdlB RA): 90%

CCNc1cc(N2CCC(CCC(=O)O)CC2)ncn1 [Compound P207-8919]
remaining activity at 1800 µM [3]: 83%

CCS(=O)(=O)N1CCC(F)(C(=O)N2CCCC2)CC1 [Compound T502-1464]
remaining activity at 2100 µM [2]: 83%

CCn1cnnc1CC1CCCN(C(=O)c2ccco2)C1 (stereo not drawn) [Compound T501-0329]
remaining activity at 2100 µM [2]: 69%
